In US20210330611A1, “THERAPY FOR NEUROLOGICAL DISEASES/DISORDERS” (priority 2020, published 2021):
Where a name gives a salt, the structure may show the parent alone. Read-outs that look alike come from different tables or passages of the source.

Assays:
[1] = test system: fibrin- and LPS-induced microglia activation; experiment: cells; format: cell-based, rat
primary rat microglia [2] = experiment: Cell toxicity (dead cells, size <150 μm2) in coated fibrin (cFib) assay; conditions: primary microglia HTS;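 note: share of dead cells sized under 150 µm2 at 10 µM in fibrin-stimulated microglia HTS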
[3] = test system: LPS-induced microglia activation; experiment: Image-based assay of LPS-induced microglia activation (HTS and dose response); format: cell-based, rat; conditions: for inhibition at 10 µM: Rattus norvegicus, Microglia, read-out: LPS % inhibition
primary rat microglia [4] = test system: primary rat microglia
[5] = test system: fibrin-induced microglia activation; experiment: Image-based assay of fibrin-induced microglia activation (HTS and dose response); format: cell-based, rat; conditions: primary microglia HTS, fibrin stimulation; for inhibition at 10 µM: Rattus norvegicus, Microglia, read-out: Fibrin % inhibition
[6] = classification by fibrin and LPS inhibition in HTS
[7] = fibrin stimulation, cell size <150 μm2 as marker of toxicity
[8] = cell size >800 μm2 as marker of activation
[9] = quadrant by fibrin and LPS inhibition, HTS at 10 μM
[10] = fibrin assay, dead cells (size <150 μm2)
[11] = primary microglia HTS, LPS stimulation, compounds at 10 μM
[12] = classification by fibrin and LPS inhibition, HTS at 10 μM
[13] = fibrin assay, dead cells (size <150 μm2), compounds at 10 μM

Compound | Quadrant (FIG. 5b) [1, 6] | Fibrin % cell toxicity (primary rat microglia [2]; [7]) [%] | LPS % cell toxicity (primary rat microglia [4]; rat) [%] | inhibition at 10 µM [3, 11] [%] | inhibition at 10 µM ([5]; compounds at 10 μM) [%] | Quadrant (FIG. 5b) [1, 12] | Fibrin % cell toxicity (primary rat microglia [2]; [13]) [%] | further results
CCOc1cc(CC(=O)N[C@@H](CC(C)C)c2ccccc2N2CCCCC2)ccc1C(=O)O [Repaglinide] | Q4 | 1 | 0 |  |  |  |  | inhibition at 10 µM ([3]; 48 h): 18%; inhibition at 10 µM [5, 8]: -14%
CN1CCC(=C2c3ccccc3Sc3ccccc32)CC1 [Pimethixene Maleate] |  |  | 2 | 92 | 112 |  |  | Quadrant (FIG. 5b) [1, 9]: Q2; Fibrin % cell toxicity (primary rat microglia [2]; [10]): 6%
CC(=O)Nc1ccc(OC(C)=O)cc1 [Diacetamate] |  |  | 0 | 21 | -25 | Q4 | 1 | 
CCOC(=O)/C=C(C)/C=C/C=C(C)/C=C/c1c(C)cc(OC)c(C)c1C [Etretinate] |  |  | 0 | 9 | -19 | Q4 | 1 | 
OCc1ccccc1O [Salicyl Alcohol] | Q4 | 1 | 0 |  |  |  |  | inhibition at 10 µM ([3]; 48 h): 19%; inhibition at 10 µM [5, 8]: -5%
CN1CCN(C(c2ccccc2)c2ccccc2)CC1 [Cyclizine] |  |  | 1 | 34 | -23 | Q4 | 0 | 
CC[C@H]1OC(=O)[C@H](C)[C@@H](O[C@H]2C[C@@](C)(OC)[C@@H](O)[C@H](C)O2)[C@H](C)[C@@H](O[C@@H]2O[C@H](C)C[C@H](N(C)C)[C@H]2O)[C@](C)(O)C[C@@H](C)[C@@H]2N[C@@H](COCCOC)O[C@H]([C@H]2C)[C@]1(C)O [Dirithromycin] |  |  | 1 | 27 | 7 | Q4 | 1 | 
Acetophenazine Maleate |  |  |  |  |  |  |  | Quadrant (FIG. 5b) [1, 9]: Q4; Fibrin % cell toxicity (primary rat microglia [2]; [10]): 1%; LPS % inhibition [3, 11]: 15%; LPS % cell toxicity (primary rat microglia [4]): 0%; Fibrin % inhibition ([5]; compounds at 10 μM): 34%
CCCCC(CC)COc1ccc(-c2nc(-c3ccc(OC)cc3)nc(-c3ccc(OCC(CC)CCCC)cc3O)n2)c(O)c1 (stereo not shown) [Bemotrizinol] |  |  |  |  |  |  |  | Quadrant (FIG. 5b) [1, 9]: Q4; Fibrin % cell toxicity (primary rat microglia [2]; [10]): 1%; LPS % inhibition [3, 11]: 16%; LPS % cell toxicity (primary rat microglia [4]): 0%; Fibrin % inhibition ([5]; compounds at 10 μM): −23%
O=C(O)c1cc(O)c2c(c1)[C@H]([C@H]1c3cc(C(=O)O)cc(O)c3C(=O)c3c(O[C@@H]4O[C@H](CO)[C@@H](O)[C@H](O)[C@H]4O)cccc31)c1cccc(O[C@@H]3O[C@H](CO)[C@@H](O)[C@H](O)[C@H]3O)c1C2=O [Sennoside A] | Q4 | 1 |  |  |  |  |  | LPS % inhibition [3]: 14%; LPS % cell toxicity (primary rat microglia [4]): 0%; Fibrin % inhibition [5, 8]: −10%
C=CCSCC1Nc2cc(Cl)c(S(N)(=O)=O)cc2S(=O)(=O)N1 (stereo not shown) [Althiazide] |  |  | 1 | 12 | -11 |  |  | Quadrant (FIG. 5b) [1, 9]: Q4; Fibrin % cell toxicity (primary rat microglia [2]; [10]): 1%
CC(CN(C)C)CN1c2ccccc2Sc2ccccc21 (stereo not shown) [Alimemazine] |  |  | 0 | 39 | 32 |  |  | Quadrant (FIG. 5b) [1, 9]: Q4; Fibrin % cell toxicity (primary rat microglia [2]; [10]): 1%
CCOC(=O)CCC(=O)O[C@H]1[C@H](O[C@@H]2[C@@H](C)[C@H](O[C@H]3C[C@@](C)(OC)[C@@H](O)[C@H](C)O3)[C@@H](C)C(=O)O[C@H](CC)[C@@](C)(O)[C@H](O)[C@@H](C)C(=O)[C@H](C)C[C@@]2(C)O)O[C@H](C)C[C@@H]1N(C)C [Erythromycin Ethylsuccinate] |  |  | 0 | 14 | -14 | Q4 | 0 | 
Nc1ccc(/N=N/c2ccccc2)c(N)n1 [Phenazopyridine] | Q4 | 0 | 0 |  |  |  |  | inhibition at 10 µM ([3]; 48 h): 6%; inhibition at 10 µM [5, 8]: 9%
Cc1c(OCC(F)(F)F)ccnc1C[S@@+]([O-])c1nc2ccccc2[nH]1 [Dexlansoprazole] |  |  | 0 | -12 | -23 | Q4 | 0 | 
CC(=O)SCC(Cc1ccccc1)C(=O)NCC(=O)OCc1ccccc1 (stereo not shown) [Racecadotril] | Q4 | 1 | 0 |  |  |  |  | inhibition at 10 µM ([3]; 48 h): 18%; inhibition at 10 µM [5, 8]: -51%
FCOC(C(F)(F)F)C(F)(F)F [Sevoflurane] | Q4 | 1 | 1 |  |  |  |  | inhibition at 10 µM ([3]; 48 h): 17%; inhibition at 10 µM [5, 8]: -1%
